Data as given in patent publication US20050080570A1, “Predicting probabilities of achieving a desired minimum trough level for an anti-infective agent” (priority 2003, published 2005).
Read-outs that look alike come from different tables or passages of the source.

Tests used:
[1] = 100% human serum; fourth study; cited from earlier work
[2] = average value across the studies

Row | Protein-binding correction factor, Average [2] | Protein-binding correction factor, Average (human) | SMILES | Protein-binding correction factor, 100% HS [1]
1 | 18.4 | – | O=C1Nc2ccc(Cl)cc2[C@@](C#CC2CC2)(C(F)(F)F)O1 [EFV, Efavirenz] | 25.5
2 | 46.1 | – | Cc1c(O)cccc1C(=O)N[C@@H](CSc1ccccc1)[C@H](O)CN1C[C@H]2CCCC[C@H]2C[C@H]1C(=O)NC(C)(C)C [NFV, Nelfinavir] | 90.6
3 | 1.3 | – | Cc1ccnc2c1NC(=O)c1cccnc1N2C1CC1 [NVP, Nevirapine] | 1.2
4 | – | 23.4 | CC(C)(C)NC(=O)[C@@H]1C[C@@H]2CCCC[C@@H]2CN1C[C@@H](O)[C@H](Cc1ccccc1)NC(=O)[C@H](CC(N)=O)NC(=O)c1ccc2ccccc2n1 [SQV, Saquinavir] | –
